Holding throughout (assay): NCI-60 cell line screen, 48 h
Assay [1] relates to SW-620 colon.
Assay [2] relates to OVCAR-4 ovarian.
For assay [3], the system named is K-562 leukemia.
In assay [4] the test system is RXF 393 renal.
The test system of assay [5] is LOX IMVI melanoma.
Assay [6] deals with BT-549 breast.
Assay [7] concerns MDA-MB-231 breast.
The subject of assay [8] is KM12 colon.
In assay [9] the test system is SN12C renal.
In assay [10] the test system is DU-145 prostate.

This note sets out measurements from PubChem BioAssay (NCI).

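Following 48 hours of exposure in 96-well plates, responses at five concentrations were used to interpolate endpoints linearly. Here, GI50 denotes the concentration required for 50% inhibition of growth. The concentration for full growth arrest is given as TGI.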

`COc1cc(Oc2c(C)c(Cl)c(OC)c(Cl)c2OC)c2c(c1Cl)COC2=O`: the TGI in [1] was over 100 µM; in assay [2], over 100 µM; in [3], 8.51 µM; in assay [4], over 100 µM; in assay [5] it was over 100 µM; in assay [6], over 100 µM. The TGI in [7] was over 100 µM; in [8] it was over 100 µM; in assay [9], 59.7 µM; in assay [10], over 100 µM.

As to `Cc1c2ccn(O)cc2c(C)c2c1nc1ccccc12`, the TGI is over 100 µM in assay [1]; over 100 µM in [2]; over 81.4 µM in [3]; 22.6 µM in [4]; 17.1 µM in [5]; 53.8 µM in assay [6]. In addition, the TGI in assay [7], in assay [8], in [9] and in assay [10] was over 100 µM throughout.

For `COC(=O)C1=C(O)[C@H](C(=O)OC)C2(O)C(C(=O)OC)[C@H](c3ccc(OC(=O)C(C)c4ccccc4)cc3)C[C@@H]1[C@@H]2C(=O)OC` (stereo partly drawn), the GI50 was 21000 nM in assay [1]; 21.5 µM in assay [2]; 19.4 µM in [3]; 13700 nM in assay [4]; 6.85 µM in [5]; 19.3 µM in [6]. Moreover, the GI50 in assay [7] was 19500 nM; in [8], 10600 nM; in assay [9], 23.7 µM; in [10] it was 20.6 µM. For the same compound, the TGI in [1] is over 50 µM; in assay [2] it was over 50 µM; in assay [3] it was over 50 µM; in assay [4], over 50 µM; in assay [5] it was 16.2 µM; in assay [6], over 50 µM. Moreover, the TGI in assay [7] is over 50 µM; in assay [8], 31.4 µM; in [9], over 50 µM; in assay [10], over 50 µM.

With `COc1ccc2c(c1)c(-c1nc(-c3c[nH]c4ncccc34)cs1)cn2CCCN1CCCCC1`, the GI50 is 2000 nM in assay [1]; 1.83 µM in [2]; 1.88 µM in [3]; 1590 nM in assay [4]; 1.67 µM in assay [5]; 3.28 µM in assay [6]. The GI50 in assay [7] is 1660 nM; in assay [8], 1870 nM; in assay [9], 1.75 µM; in assay [10] it was 1.65 µM. The TGI stood at 3.95 µM in assay [1]; 4.35 µM in assay [2]; 4.16 µM in assay [3]; 3.2 µM in [4]; 3.18 µM in [5]; 12.7 µM in assay [6]. For the same compound, the TGI is 3.27 µM in [7], 3.86 µM in [8], 3.36 µM in assay [9] and 3.13 µM in [10].

As for `CSC(=NC#N)S/C=C/C(=O)c1ccccc1`, the GI50 in [1] was 18000 nM; in assay [2], over 100 µM; in assay [3], 32.7 µM; in assay [4] it was 31100 nM; in assay [5], 31 µM; in assay [6], 29.2 µM. For the same compound, the GI50 in [7] is 39200 nM; in assay [8] it was over 100000 nM; in assay [9] it was 39.4 µM; in [10], 20.6 µM. For the same compound, the TGI in [1] is 43.3 µM; in assay [2], over 100 µM; in assay [3] it was over 100 µM; in assay [4], 79 µM; in assay [5] it was over 100 µM; in [6] it was 70.4 µM. For the same compound, the TGI in [7] is over 100 µM; in [8], over 100 µM; in assay [9], over 100 µM; in assay [10] it was 46.3 µM.

With `CN(C)CCCN(CCC1CCCCC1)CCC1CCCCC1`, the GI50 is 1750 nM in assay [1]; 7.41 µM in assay [2]; 0.591 µM in assay [3]; 1470 nM in assay [4]; 1.47 µM in [5]; 7.74 µM in [6]. In addition, the GI50 was 1620 nM in [7], 1780 nM in assay [8], 9.79 µM in [9] and 5.56 µM in assay [10]. Also, the TGI in assay [1] is 3.31 µM; in assay [2] it was 27.7 µM; in assay [4], 4.24 µM; in assay [5] it was 2.91 µM; in assay [6], 22.2 µM; in assay [7], 3.97 µM. Moreover, the results for the TGI in assay [8], in [9] and in [10] were 3.44 µM, 22.9 µM and 17.7 µM, respectively.

For the compound `COc1ccc(C=Nc2c(C(=O)Nc3cccc(Cl)c3C)sc3nc(C)c(C(=O)/C=C/c4ccc(OC)cc4)cc23)cc1`, the GI50 is 412 nM in assay [1]; 0.259 µM in assay [3]; 163 nM in assay [4]; 0.666 µM in [5]; 0.787 µM in assay [6]; 383 nM in assay [7]. For the same compound, the results for the GI50 in assay [8], in assay [9] and in [10] were 894 nM, 0.853 µM and 0.638 µM, respectively. For the same compound, the TGI in assay [1] was over 50 µM; in assay [2], over 50 µM; in assay [3], over 50 µM; in assay [4], 0.906 µM; in [5], over 50 µM; in assay [6], over 38.5 µM. The TGI in assay [7] is 2.26 µM; in assay [8], over 43.9 µM; in [9], over 50 µM; in assay [10], 14.6 µM.

In the case of `CO[C@H]1C=CO[C@@]2(C)Oc3c(C)c(O)c4c(O)c(c(CN5CCN(C)CC5)c(O)c4c3C2=O)NC(=O)/C(C)=C\C=C[C@H](C)[C@H](O)C(C)[C@@H](O)C(C)[C@H](OC(C)=O)[C@@H]1C` (stereo partly drawn), the TGI in assay [1] was over 100 µM; in assay [2] it was over 100 µM; in assay [3], over 100 µM; in assay [4] it was over 100 µM; in [5], over 71.9 µM; in assay [6], over 100 µM. Moreover, the TGI in assay [7] was over 100 µM; in assay [8], over 100 µM; in assay [9], over 93.9 µM; in assay [10], over 100 µM.

For the compound `CN(CCCCCl)P(=O)(OCCS(=O)(=O)CC(NC(=O)CCC(N)C(=O)O)C(=O)NC(C(=O)O)c1ccccc1)OCC1OC(n2ccc(N)nc2=O)C(O)C1O` (stereo not drawn), the GI50 in assay [1] is over 44900 nM; in assay [2], 47.5 µM; in assay [3], 7.36 µM; in [4], over 75000 nM; in [5] it was 45.5 µM; in assay [6], 48.7 µM. For the same compound, the GI50 in assay [7] was over 75000 nM; in assay [8], 27400 nM; in assay [9], over 60 µM; in assay [10], 9.1 µM. Moreover, the TGI in assay [1], in assay [2], in assay [3], in assay [4], in [5] and in assay [6] was over 75 µM throughout. Besides, the TGI in [7], in assay [8], in assay [9] and in [10] was over 75 µM each time.
